Measured values as given in patent US11208405B2, “Pyrrole derivatives as PLK1 inhibitors” (SENTINEL ONCOLOGY LIMITED, priority 2017, dated 2021).
Where a name gives a salt, the structure may show the parent alone.

Tests used:
wild-type HeLa cell line = assay: Wild-type versus KRAS HeLa cell viability: wild-type KRAS transgene; type: cell-based; details: Homo sapiens; HeLa cells expressing wild-type KRAS, 72 hours; read-out: WT GI50
Experimental: Assay to Measure the Effects of Compounds of the Invention on Wild-Type Versus KRAS HeLa Cell Viability
Identifying synthetic lethal interactions between targeted small molecule therapies and characterised oncogenic mutations is a goal of modern oncology drug discovery efforts. To this end, PLK1-PBD inhibitors were tested on HeLa cells engineered to inducibly express wild-type or oncogenic KrasG12V transgenes using the FLP-in/T-Rex system (Invitrogen). Cells were plated, and then treated with or without Doxycycline to induce transgene expression, and then treated with serially-diluted PBD inhibitors. After 72 hours of incubation, cell viability was assessed using the Cell Titre Blue reagent (Promega) and a BMG Pherastar plate reader. The effect of PBD inhibition on cell viability with either wild-type or oncogenic G12V KRAS was assessed using the graphing/curve-fitting packages in GraphPad Prism.

[1] = Determination of oral bioavailability (plasma pharmacokinetics i.v. and p.o.); type: in vivo, Male CD-1 mice; details: mice
Experimental: Determination of Oral Bioavailability The oral bioavailability of the compound of Example 33 was determined in mice and compared with the bioavailability following intravenous injection using the following protocol. […] N=3 mice per time point with 15 ul plasma per aliquot.

Kinetic solubility = type: physicochemical; details: kinetic from dmso stock
hERG ion channel = hERG ion channel (Homo sapiens, UniProt Q12809); assay: Binding to the hERG ion channel
phospho-histone H3 = assay: Western blotting of tumours 24 hours after a single dose; type: in vivo; details: mice with established tumours
Experimental: In a separate experiment, eight mice with established tumours were treated with the compound of Example 33 and euthanised 24 hours after administration of a single dose.

[2] = tested on: glioblastoma cell line 908145; assay: Glioblastoma cancer cell viability, cell line 908145; type: cell-based
Experimental: (§1) Assay to Measure the Effects of Compounds of the Invention on Glioblastoma Cancer Cell Viability
(§2) The compound of Example 33 was tested for inhibitory activity against the glioblastoma cell lines in Table 7 below.

[3] = tested on: glioblastoma cell line 905984; assay: Glioblastoma cancer cell viability, cell line 905984; type: cell-based
Experimental: as §1, §2

[4] = tested on: glioblastoma cell line 687586; assay: Glioblastoma cancer cell viability, cell line 687586; type: cell-based
Experimental: as §1, §2

[5] = tested on: glioblastoma cell line 907313; assay: Glioblastoma cancer cell viability, cell line 907313; type: cell-based
Experimental: as §1, §2

[6] = tested on: glioblastoma cell line 909745; assay: Glioblastoma cancer cell viability, cell line 909745; type: cell-based
Experimental: as §1, §2

[7] = tested on: glioblastoma cell line 946368; assay: Glioblastoma cancer cell viability, cell line 946368; type: cell-based
Experimental: as §1, §2

[8] = tested on: glioblastoma cell line 907271; assay: Glioblastoma cancer cell viability, cell line 907271; type: cell-based
Experimental: as §1, §2

[9] = tested on: glioblastoma cell line 907279; assay: Glioblastoma cancer cell viability, cell line 907279; type: cell-based
Experimental: as §1, §2

AAK1 = biological target: T1, AAK1 (Homo sapiens, UniProt Q2M2I8); assay: Kinase selectivity assay (DiscoverX KinomeScreen), AAK1; type: binding; details: AAK1, 5 μM; read-out: % Control
T1 construct: purchased DiscoverX
T1 sequence (Q2M2I8 whole entry): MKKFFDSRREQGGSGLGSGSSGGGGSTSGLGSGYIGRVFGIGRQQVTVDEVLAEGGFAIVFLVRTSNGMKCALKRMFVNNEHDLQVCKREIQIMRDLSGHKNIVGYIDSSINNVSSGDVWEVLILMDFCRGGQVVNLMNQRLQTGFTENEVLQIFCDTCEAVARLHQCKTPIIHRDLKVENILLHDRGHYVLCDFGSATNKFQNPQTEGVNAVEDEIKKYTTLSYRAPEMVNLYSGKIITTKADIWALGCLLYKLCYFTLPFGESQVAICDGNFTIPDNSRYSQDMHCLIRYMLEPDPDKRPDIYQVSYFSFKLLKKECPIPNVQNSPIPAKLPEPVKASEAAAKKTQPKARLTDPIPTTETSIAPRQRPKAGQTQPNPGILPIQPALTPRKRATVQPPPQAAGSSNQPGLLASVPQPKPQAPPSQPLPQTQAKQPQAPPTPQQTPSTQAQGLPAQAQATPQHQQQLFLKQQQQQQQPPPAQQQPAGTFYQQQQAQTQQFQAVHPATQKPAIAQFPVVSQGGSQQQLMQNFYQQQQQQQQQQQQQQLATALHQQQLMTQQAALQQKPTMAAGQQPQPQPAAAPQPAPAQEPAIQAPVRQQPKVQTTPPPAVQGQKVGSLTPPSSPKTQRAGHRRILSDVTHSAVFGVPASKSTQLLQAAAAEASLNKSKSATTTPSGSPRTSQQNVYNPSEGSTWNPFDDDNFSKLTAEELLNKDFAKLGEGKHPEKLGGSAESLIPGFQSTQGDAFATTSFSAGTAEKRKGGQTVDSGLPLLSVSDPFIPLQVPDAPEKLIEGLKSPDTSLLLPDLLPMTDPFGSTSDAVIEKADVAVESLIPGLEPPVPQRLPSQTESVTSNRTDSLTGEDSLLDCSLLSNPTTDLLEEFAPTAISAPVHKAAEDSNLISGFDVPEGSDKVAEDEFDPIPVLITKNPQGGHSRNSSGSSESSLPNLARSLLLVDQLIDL
Experimental: (§3) The compound of Example 33 was tested for off-target activity against a panel of fifty five kinases bearing functional or structural similarity to PLK1 at a concentration of 5 μM using the DiscoverX KinomeScreen assay.

AURKA = biological target: T2, AURKA (Homo sapiens, UniProt O14965); assay: Kinase selectivity assay (DiscoverX KinomeScreen), AURKA; type: binding; details: read-out: % Control
T2 construct: purchased DiscoverX
Experimental: as §3

AURKB = biological target: T3, AURKB (Homo sapiens, UniProt Q96GD4); assay: Kinase selectivity assay (DiscoverX KinomeScreen), AURKB; type: binding; details: read-out: % Control
T3 construct: purchased DiscoverX
Experimental: as §3

BMP2K = biological target: T4, BMP2K (Homo sapiens, UniProt Q9NSY1); assay: Kinase selectivity assay (DiscoverX KinomeScreen), BMP2K; type: binding; details: read-out: % Control
T4 construct: purchased DiscoverX
Experimental: as §3

CSNK2A1 = biological target: T5, CSNK2A1 (Homo sapiens, UniProt P68400); assay: Kinase selectivity assay (DiscoverX KinomeScreen), CSNK2A1; type: binding; details: CSNK2A1, 5 μM; read-out: % Control
T5 construct: purchased DiscoverX
Experimental: as §3

CSNK2A2 = biological target: T6, CSNK2A2 (Homo sapiens, UniProt P19784); assay: Kinase selectivity assay (DiscoverX KinomeScreen), CSNK2A2; type: binding; details: CSNK2A2, 5 μM; read-out: % Control
T6 construct: purchased DiscoverX
Experimental: as §3

EIF2AK4 = assay: Kinase selectivity assay (DiscoverX KinomeScreen), EIF2AK4; type: binding; details: EIF2AK4, 5 μM
Experimental: as §3

GSG2 = biological target: T7, GSG2 (Homo sapiens, UniProt Q8TF76); assay: Kinase selectivity assay (DiscoverX KinomeScreen), GSG2; type: binding; details: GSG2, 5 μM; read-out: % Control
T7 construct: purchased DiscoverX
T7 sequence (Q8TF76 whole entry): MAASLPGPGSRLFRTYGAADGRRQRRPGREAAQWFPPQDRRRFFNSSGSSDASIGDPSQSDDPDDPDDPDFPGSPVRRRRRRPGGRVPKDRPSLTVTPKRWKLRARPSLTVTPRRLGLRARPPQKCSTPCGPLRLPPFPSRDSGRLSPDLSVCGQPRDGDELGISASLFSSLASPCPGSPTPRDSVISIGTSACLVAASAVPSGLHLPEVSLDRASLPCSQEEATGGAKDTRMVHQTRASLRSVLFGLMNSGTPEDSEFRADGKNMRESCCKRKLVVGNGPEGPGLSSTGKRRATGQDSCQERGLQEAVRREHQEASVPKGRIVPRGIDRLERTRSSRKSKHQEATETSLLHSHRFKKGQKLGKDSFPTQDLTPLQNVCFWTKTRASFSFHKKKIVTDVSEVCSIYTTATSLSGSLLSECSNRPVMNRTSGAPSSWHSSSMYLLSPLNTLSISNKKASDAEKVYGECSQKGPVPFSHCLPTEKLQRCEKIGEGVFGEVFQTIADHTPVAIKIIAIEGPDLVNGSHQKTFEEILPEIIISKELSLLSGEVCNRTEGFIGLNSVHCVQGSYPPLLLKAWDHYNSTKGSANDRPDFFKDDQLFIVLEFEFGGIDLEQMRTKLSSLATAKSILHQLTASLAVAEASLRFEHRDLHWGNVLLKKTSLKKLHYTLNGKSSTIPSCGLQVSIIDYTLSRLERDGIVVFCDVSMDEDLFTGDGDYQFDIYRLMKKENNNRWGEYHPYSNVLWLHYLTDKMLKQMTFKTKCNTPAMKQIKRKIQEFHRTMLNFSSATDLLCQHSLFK
Experimental: as §3

NEK1 = biological target: T8, NEK1 (Homo sapiens, UniProt Q96PY6); assay: Kinase selectivity assay (DiscoverX KinomeScreen), NEK1; type: binding; details: NEK1, 5 μM; read-out: % Control
T8 construct: purchased DiscoverX
Experimental: as §3

NEK10 = biological target: T9, NEK10 (Homo sapiens, UniProt Q6ZWH5); assay: Kinase selectivity assay (DiscoverX KinomeScreen), NEK10; type: binding; details: NEK10, 5 μM; read-out: % Control
T9 construct: purchased DiscoverX
Experimental: as §3

PKMYT1 = biological target: T10, PKMYT1 (Homo sapiens, UniProt Q99640); assay: Kinase selectivity assay (DiscoverX KinomeScreen), PKMYT1; type: binding; details: PKMYT1, 5 μM; read-out: % Control
T10 construct: purchased DiscoverX
T10 sequence (Q99640 whole entry): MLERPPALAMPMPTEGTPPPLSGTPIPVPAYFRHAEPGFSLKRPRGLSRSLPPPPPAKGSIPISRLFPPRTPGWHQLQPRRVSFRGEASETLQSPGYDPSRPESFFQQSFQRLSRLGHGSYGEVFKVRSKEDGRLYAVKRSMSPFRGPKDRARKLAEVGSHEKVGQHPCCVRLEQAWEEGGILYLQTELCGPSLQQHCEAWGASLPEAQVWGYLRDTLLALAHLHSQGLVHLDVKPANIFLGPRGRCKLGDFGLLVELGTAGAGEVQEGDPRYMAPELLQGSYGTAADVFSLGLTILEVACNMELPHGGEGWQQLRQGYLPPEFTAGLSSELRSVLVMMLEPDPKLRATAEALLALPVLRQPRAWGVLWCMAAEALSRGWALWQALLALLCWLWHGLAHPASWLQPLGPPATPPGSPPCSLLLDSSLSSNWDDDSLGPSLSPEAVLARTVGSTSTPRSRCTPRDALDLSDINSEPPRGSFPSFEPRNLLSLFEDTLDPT
Experimental: as §3

PLK2 = biological target: T11, PLK2 (Homo sapiens, UniProt Q9NYY3); assay: Kinase selectivity assay (DiscoverX KinomeScreen), PLK2; type: binding; details: PLK2, 5 μM; read-out: % Control
T11 construct: purchased DiscoverX
Experimental: as §3

PLK3 = biological target: T12, PLK3 (Homo sapiens, UniProt Q9H4B4); assay: Kinase selectivity assay (DiscoverX KinomeScreen), PLK3; type: binding; details: PLK3, 5 μM; read-out: % Control
T12 construct: purchased DiscoverX
T12 sequence (Q9H4B4 whole entry): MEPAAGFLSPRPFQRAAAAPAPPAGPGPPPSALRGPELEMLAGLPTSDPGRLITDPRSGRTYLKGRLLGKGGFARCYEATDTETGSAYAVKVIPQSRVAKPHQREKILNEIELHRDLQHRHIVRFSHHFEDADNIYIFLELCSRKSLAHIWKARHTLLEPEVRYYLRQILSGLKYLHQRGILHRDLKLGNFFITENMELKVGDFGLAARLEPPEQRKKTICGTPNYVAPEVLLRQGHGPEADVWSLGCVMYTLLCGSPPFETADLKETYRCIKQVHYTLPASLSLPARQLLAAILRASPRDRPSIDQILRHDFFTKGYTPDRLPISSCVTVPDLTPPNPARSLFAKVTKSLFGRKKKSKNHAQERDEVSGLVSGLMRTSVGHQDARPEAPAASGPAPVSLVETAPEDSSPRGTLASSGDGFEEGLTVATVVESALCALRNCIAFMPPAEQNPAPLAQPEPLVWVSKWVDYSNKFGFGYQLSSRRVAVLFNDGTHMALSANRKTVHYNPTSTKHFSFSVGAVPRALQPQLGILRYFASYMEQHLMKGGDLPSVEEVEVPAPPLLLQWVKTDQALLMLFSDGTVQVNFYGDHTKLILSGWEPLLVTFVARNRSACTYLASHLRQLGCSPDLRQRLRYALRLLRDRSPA
Experimental: as §3

PLK4 = biological target: T13, PLK4 (Homo sapiens, UniProt O00444); assay: Kinase selectivity assay (DiscoverX KinomeScreen), PLK4; type: binding; details: PLK4, 5 μM; read-out: % Control
T13 construct: purchased DiscoverX
T13 sequence (O00444 whole entry): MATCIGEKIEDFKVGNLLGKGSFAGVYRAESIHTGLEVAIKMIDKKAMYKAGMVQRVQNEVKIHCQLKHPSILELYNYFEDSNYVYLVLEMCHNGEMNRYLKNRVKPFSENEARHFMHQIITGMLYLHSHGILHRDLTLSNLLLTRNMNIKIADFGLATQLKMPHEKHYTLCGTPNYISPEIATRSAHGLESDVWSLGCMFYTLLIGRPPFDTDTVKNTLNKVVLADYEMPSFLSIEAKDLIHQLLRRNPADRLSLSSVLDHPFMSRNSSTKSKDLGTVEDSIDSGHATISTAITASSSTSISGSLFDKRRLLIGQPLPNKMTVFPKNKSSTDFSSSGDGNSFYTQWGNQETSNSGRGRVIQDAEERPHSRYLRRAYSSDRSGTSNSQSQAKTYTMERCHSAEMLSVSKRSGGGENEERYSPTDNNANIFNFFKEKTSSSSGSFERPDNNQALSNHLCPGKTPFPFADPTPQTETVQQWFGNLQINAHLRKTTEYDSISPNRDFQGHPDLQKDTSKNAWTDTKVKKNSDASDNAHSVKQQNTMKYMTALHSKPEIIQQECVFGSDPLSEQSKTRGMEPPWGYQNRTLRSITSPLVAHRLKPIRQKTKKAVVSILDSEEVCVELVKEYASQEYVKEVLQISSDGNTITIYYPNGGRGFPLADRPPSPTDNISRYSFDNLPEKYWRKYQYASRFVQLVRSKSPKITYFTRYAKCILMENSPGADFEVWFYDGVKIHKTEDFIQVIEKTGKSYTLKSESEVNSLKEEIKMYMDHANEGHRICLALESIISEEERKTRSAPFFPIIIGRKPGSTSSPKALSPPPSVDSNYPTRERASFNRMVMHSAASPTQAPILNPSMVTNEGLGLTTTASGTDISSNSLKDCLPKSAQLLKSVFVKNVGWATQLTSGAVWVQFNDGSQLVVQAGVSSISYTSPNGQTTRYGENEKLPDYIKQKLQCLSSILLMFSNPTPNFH
Experimental: as §3

DSTYK = biological target: T14, DSTYK (Homo sapiens, UniProt Q6XUX3); assay: Kinase selectivity assay (DiscoverX KinomeScreen), DSTYK; type: binding; details: read-out: % Control
T14 construct: purchased DiscoverX
T14 sequence (Q6XUX3 whole entry): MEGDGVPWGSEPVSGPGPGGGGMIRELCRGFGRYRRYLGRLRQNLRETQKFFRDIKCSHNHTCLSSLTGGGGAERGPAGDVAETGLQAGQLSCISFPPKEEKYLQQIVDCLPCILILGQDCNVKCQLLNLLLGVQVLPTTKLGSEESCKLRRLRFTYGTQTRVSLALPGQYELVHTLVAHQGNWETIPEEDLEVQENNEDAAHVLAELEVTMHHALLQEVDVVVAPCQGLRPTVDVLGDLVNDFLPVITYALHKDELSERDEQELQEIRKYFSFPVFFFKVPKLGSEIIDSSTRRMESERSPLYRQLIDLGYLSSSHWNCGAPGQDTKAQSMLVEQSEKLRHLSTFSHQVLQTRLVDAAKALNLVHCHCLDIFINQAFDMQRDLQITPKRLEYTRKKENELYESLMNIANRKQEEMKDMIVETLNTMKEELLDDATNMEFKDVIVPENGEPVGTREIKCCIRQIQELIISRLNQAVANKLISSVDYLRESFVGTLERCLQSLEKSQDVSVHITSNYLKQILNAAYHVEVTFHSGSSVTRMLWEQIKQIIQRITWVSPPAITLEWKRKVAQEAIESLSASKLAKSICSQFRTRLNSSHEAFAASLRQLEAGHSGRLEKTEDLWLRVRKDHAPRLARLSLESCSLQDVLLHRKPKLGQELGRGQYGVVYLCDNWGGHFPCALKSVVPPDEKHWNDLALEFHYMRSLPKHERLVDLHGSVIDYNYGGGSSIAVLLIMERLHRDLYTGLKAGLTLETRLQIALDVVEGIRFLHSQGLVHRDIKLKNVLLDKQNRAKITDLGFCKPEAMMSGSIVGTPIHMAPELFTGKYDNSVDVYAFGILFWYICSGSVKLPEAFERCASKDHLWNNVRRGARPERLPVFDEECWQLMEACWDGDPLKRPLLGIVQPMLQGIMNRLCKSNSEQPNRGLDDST
Experimental: as §3

SgK110 = biological target: T15, SgK110 (Homo sapiens, UniProt P0C264); assay: Kinase selectivity assay (DiscoverX KinomeScreen), SgK110; type: binding; details: SgK110, 5 μM; read-out: % Control
T15 construct: purchased DiscoverX
Experimental: as §3

WNK4 = biological target: T16, WNK4 (Homo sapiens, UniProt Q96J92); assay: Kinase selectivity assay (DiscoverX KinomeScreen), WNK4; type: binding; details: WNK4, 5 μM; read-out: % Control
T16 construct: purchased DiscoverX
Experimental: as §3

[10] = male, CD-1, mouse, 2 mg/kg IV, plasma
[11] = male, CD-1, mouse, 10 mg/Kg PO, plasma

Molecule `CN(C)CCNC(=O)c1ccc(-c2ccc(-c3ccc(Cl)cc3)n2-c2ccccc2C(F)(F)F)cc1` [Example 33, 4-[5-(4-chlorophenyl)-1-[2-(trifluoromethyl)phenyl]pyrrol-2-yl]-N-[2-(dimethylamino)ethyl]benzamide Hydrochloride] has a GI50 (wild-type HeLa cell line) of 20 nM, an AUC(0-inf) [1, 10] of 2100 ng·h/mL and a Cmax [1, 10] of 873 ng/mL. For the same molecule, the half-life ([1]; male, CD-1, mouse, 2 mg/kg IV, plasma, read-out: T½ (converted)) was 780 min, the Vd ([1]; male, CD-1, mouse, 2 mg/kg IV, plasma, read-out: Vss) was 17 L/kg and the AUC(0-inf) [1, 11] was 9800 ng·h/mL. The Cmax [1, 11] was 415 ng/mL, the CI ([1]; 2 mg/kg IV, plasma) was 16 mL/min/kg and the F ([1]; 10 mg/Kg PO versus 2 mg/kg IV) was 93%. For the same molecule, the T½ ([1]; 10 mg/Kg PO, plasma) was 15 h, the Vz ([1]; 10 mg/Kg PO, plasma) was 23 L/kg and the solubility kinetic (Kinetic solubility) was 32 µM. For the same molecule, the “binding to the hERG ion channel” value (hERG ion channel) was greater than 25 µM, the “phospho-histone H3 in tumours (Western blotting)” value (phospho-histone H3) was “clear induction of phospho-histone H3” and the IC50 [2] was 223 nM. It also gave an IC50 [3] of 241 nM, an IC50 [4] of 489 nM and an IC50 [5] of 1110 nM. The IC50 [6] was 1370 nM, the IC50 [7] was 1400 nM and the IC50 [8] was 2060 nM. It also gave an IC50 [9] of 27.8 µM, a remaining activity at 5 µM (AAK1) of 100% and a remaining activity at 5 µM (AURKA) of 83%. It also gave a remaining activity at 5 µM (AURKB) of 95%, a remaining activity at 5 µM (BMP2K) of 85% and a remaining activity at 5 µM (CSNK2A1) of 96%. The remaining activity at 5 µM (CSNK2A2) was 92%, the “% Control” value (EIF2AK4) was 97% and the remaining activity at 5 µM (GSG2) was 77%. For the same molecule, the remaining activity at 5 µM (NEK1) was 100%, the remaining activity at 5 µM (NEK10) was 94% and the remaining activity at 5 µM (PKMYT1) was 100%. For the same molecule, the remaining activity at 5 µM (PLK2) was 85%, the remaining activity at 5 µM (PLK3) was 74% and the remaining activity at 5 µM (PLK4) was 90%. It also gave a remaining activity at 5 µM (DSTYK) of 75%, a remaining activity at 5 µM (SgK110) of 100% and a remaining activity at 5 µM (WNK4) of 91%.
